Reference: patent publication US8455649B2, “Insecticidal substituted azinyl derivatives” (Dow AgroSciences, LLC, priority 2007, dated 2013)
Like-named read-outs stand apart in the source and are kept apart here.

How the values were obtained:
[1] = test system: Beet Armyworm (Spodoptera exigua); assay: Insecticidal diet-surface test for beet armyworm; type: in vivo; conditions: 120 h, second-instar larvae on treated diet, 50 μg/cm^2 on diet surface, 5 days after treatment, 8 insects per treatment, read-out: LAPHEG AVG % Mortality (50 μg/cm^2)
Procedure: (§1) The compounds identified in Table 1 were tested against beet armyworm and corn earworm as follows:
(§2) Insecticidal Test for Corn Earworm (Helicoverpa zea) and Beet Armyworm (Spodoptera exigua).
(§3) To prepare test solution, the test compound was formulated at 2000 ppm solution as 4 mg/2 mL of 9 acetone:1 tap water. 50 μL of the 2000 ppm (equivalent to 50 μg/cm^2 dose on diet surface area) test solution was pipetted upon the surface of 1 mL of lepidopteran diet (Southland Multi-Species Lepidopteran Diet) contained in each of eight wells per insect species (one well=1 replication). A second-instar corn earworm and beet armyworm was placed upon the treated diet in each well once the solvent had air-dried. Trays containing the treated diet and larvae were covered and then held in a growth chamber at 25° C., 50-55% RH, and 16 hr light:8 hr dark for 5 days. Observation were conducted 5 days after treatment and infestation. The number of dead insects of 8 per species per treatment was then determined and the results are given in Table 2 as a percent control at a dose of […].

[2] = test system: Corn Earworm (Helicoverpa zea); assay: Insecticidal diet-surface test for corn earworm; type: in vivo; conditions: 120 h, read-out: HELIZE AVG % Mortality (50 μg/cm^2)
Procedure: as §1, §2, §3

[3] = second-instar larvae on treated diet, 50 μg/cm^2 on diet surface, 5 days after treatment, 8 insects per treatment

| Compound | mortality at 50 µg/cm2 [1] [%] | mortality at 50 µg/cm2 [2, 3] [%] | mortality at 50 µg/cm2 [2] [%] |
| --- | --- | --- | --- |
| CCOCN(C(=O)Nc1nc(OCC(F)(F)F)cc(OCC(F)(F)F)n1)c1ccc(C(F)(F)F)nc1 [Compound 90] | 100 | 100 |  |
| O=C(Nc1ccc(C(F)(F)F)nc1)N(COCc1ccccc1)c1nc(OCC(F)(F)F)cc(OCC(F)(F)F)n1 [Compound 87] | 100 | 100 |  |
| Cc1c(OCC(F)(F)F)nc(NC(=O)N(C)c2ccc(OC(F)(F)F)cc2)nc1OCC(F)(F)F [Compound 142] | 100 | 100 |  |
| CN(C(=O)Nc1nc(OCC(F)(F)F)cc(OCC(F)(F)F)n1)c1ccc(F)cn1 [Compound 125] | 88 | 100 |  |
| CN(C(=O)Nc1nc(OCC(F)(F)F)cc(OCC(F)(F)F)n1)c1ccc(C(F)(F)F)cn1 [Compound 122] | 100 | 88 |  |
| CN(C(=O)Nc1nc(OCC(F)(F)F)cc(OCC(F)(F)F)n1)c1ccc(C#N)cn1 [Compound 128] | 88 | 100 |  |
| COCN(C(=O)Nc1nc(OCC(F)(F)F)cc(OCC(F)(F)F)n1)c1ccc(OC(F)(F)F)cc1 [Compound 45] | 100 | 100 |  |
| CN(C(=O)Nc1nc(OCC(F)(F)F)cc(OCC(F)(F)F)n1)c1ccc(SC(F)(F)F)cc1 [Compound 80] | 100 | 100 |  |
| CN(C(=O)Nc1nc(OCC(F)(F)F)cc(OCC(F)(F)F)n1)c1ccc(F)cc1 [Compound 86] | 100 | 100 |  |
| CCOC(=O)N(C(=O)N(COCc1ccccc1)c1nc(OCC(F)(F)F)cc(OCC(F)(F)F)n1)c1ccc(C(F)(F)F)cc1 [Compound 36] | 100 |  | 100 |
| CN(C(=O)Nc1cc(C(F)(F)F)cc(OCC(F)(F)F)n1)c1ccc(C(F)(F)F)cc1 [Compound 162] | 100 | 100 |  |
| O=C(Nc1ccc(C(F)(F)F)nc1)Nc1nc(OCC(F)(F)F)cc(OCC(F)(F)F)n1 [Compound 24] | 100 | 100 |  |
| CCOc1cc(OCC(F)(F)F)nc(NC(=O)N(C)c2ccc(Br)cc2)n1 [Compound 103, N-(4-bromophenyl)-N′-[4-ethoxy-6-(2,2,2-trifluoroethoxy)-pyrimidin-2-yl]-N-methylurea] | 25 | 100 |  |
| CC(=O)OCN(C(=O)Nc1nc(OCC(F)(F)F)cc(OCC(F)(F)F)n1)c1ccc(C(F)(F)F)cc1 [Compound 38] | 100 | 100 |  |
| CN(C(=O)Nc1nc(OCC(F)(F)F)cc(OCC(F)(F)F)n1)c1ccc(I)cc1 [Compound 81] | 100 | 100 |  |
| CN(C(=O)Nc1nc(OCC(F)(F)F)cc(OCC(F)(F)F)n1)c1ccc(S(=O)(=O)C(F)(F)F)cc1 [Compound 94] | 100 | 100 |  |
| COCN(C(=O)Nc1nc(OCC(F)(F)F)cc(OCC(F)(F)F)n1)c1ccc(C(F)(F)F)nc1 [Compound 91] | 100 | 100 |  |
| O=C(Nc1ccc(I)cc1)Nc1nc(OCC(F)(F)F)cc(OCC(F)(F)F)n1 [Compound 54] | 100 | 100 |  |
| CN(C(=O)Nc1cc(OCC(F)(F)F)nc(OCC(F)(F)F)n1)c1ccc(Cl)nc1 [Compound 110] | 100 | 0 |  |
| CCOc1cc(OCC(F)(F)F)nc(NC(=O)Nc2ccc(C(F)(F)F)cc2)n1 [Compound 100] | 100 | 100 |  |
| O=C(Nc1ccc(OC(F)(F)F)cc1)Nc1nc(OCC(F)(F)F)cc(OCC(F)(F)F)n1 [Compound 3, N-(4-trifluoromethoxyphenyl)-N′-[4,6-(2,2,2-trifluoroethoxy)pyrimidin-2-yl]urea] | 100 | 100 |  |
| O=C(Nc1ccc(Br)cc1)N(COCc1ccccc1)c1nc(OCC(F)(F)F)cc(OCC(F)(F)F)n1 [Compound 63] | 100 | 100 |  |
| O=C(Nc1ccc(C(F)(F)F)cc1)Nc1cc(OCC(F)(F)F)nc(OCC(F)(F)F)n1 [Compound 105] | 100 | 0 |  |
| CN(C(=O)Nc1cc(OCC(F)(F)F)nc(OCC(F)(F)F)n1)c1ccc(C(F)(F)F)cc1 [Compound 107] | 100 | 100 |  |
| CN(C(=O)Nc1nc(OCC(F)(F)C(F)F)cc(OCC(F)(F)C(F)F)n1)c1ccc(C(F)(F)F)cc1 [Compound 177] | 100 | 100 |  |

| Compound | mortality at 50 µg/cm2 [1] [%] | mortality at 50 µg/cm2 [2, 3] [%] | mortality at 50 µg/cm2 [2] [%] |
| --- | --- | --- | --- |
| Cc1c(OCC(F)(F)F)nc(NC(=O)N(C)c2ccc(Br)cc2)nc1OCC(F)(F)F [Compound 140] | 100 | 100 |  |
| CN(C(=O)Nc1cc(C(F)(F)F)cc(OCC(F)(F)F)n1)c1ccc(OC(F)(F)F)cc1 [Compound 168] | 100 | 100 |  |
| CN(C(=O)Nc1nc(OCC(F)(F)F)cc(OCC(F)(F)F)n1)c1ccc(Br)cc1 [Compound 41, N′-[4,6-bis(2,2,2-trifluoroethoxy)pyrimidin-2-yl]-N-methyl-N-(4-bromophenyl)urea] | 100 | 100 |  |
| CN(C(=O)Nc1nc(OCC(F)(F)F)cc(OCC(F)(F)F)n1)c1ccc(C(F)(F)F)cc1F [Compound 161] | 100 | 100 |  |
| O=C(Nc1ccc(Cl)c(Cl)c1)Nc1nc(OCC(F)(F)F)cc(OCC(F)(F)F)n1 [Compound 5] | 25 | 50 |  |
| O=C(Nc1ccc(C(F)(F)F)nc1)Nc1nc(OCC(F)(F)F)c(Cl)c(OCC(F)(F)F)n1 [Compound 135] | 100 | 100 |  |
| O=C(Nc1ccc(OC(F)(F)F)cc1)Nc1cc(OCC(F)(F)F)nc(OCC(F)(F)F)n1 [Compound 115] | 38 | 75 |  |
| N#Cc1ccc(NC(=O)Nc2nc(OCC(F)(F)F)cc(OCC(F)(F)F)n2)nc1 [Compound 127] | 0 | 100 |  |
| CCOCN(C(=O)Nc1ccc(C(F)(F)F)cc1)c1nc(OCC(F)(F)F)cc(OCC(F)(F)F)n1 [Compound 18] | 100 | 100 |  |
| CCCN(C(=O)Nc1nc(OCC(F)(F)F)cc(OCC(F)(F)F)n1)c1ccc(OC(F)(F)F)cc1 [Compound 26] | 100 | 100 |  |
| O=C(Nc1ccc(Br)c(F)c1)Nc1nc(OCC(F)(F)F)cc(OCC(F)(F)F)n1 [Compound 72] | 0 | 100 |  |
| O=C(Nc1ccc(C(F)(F)F)cc1)Nc1nc(OCC(F)(F)F)nc(OCC(F)(F)F)n1 [Compound 116] | 100 | 0 |  |
| CN(C(=O)Nc1nc(OCC(F)(F)F)cc(OCC(F)(F)F)c1F)c1ccc(Br)cc1 [Compound 183, N′-[3-fluoro-4,6-bis(2,2,2-trifluoroethoxy)pyridin-2-yl]-N-methyl-N-(4-bromophenyl)urea] | 100 | 50 |  |
| O=C(Nc1ccc([N+](=O)[O-])cc1)Nc1nc(OCC(F)(F)F)cc(OCC(F)(F)F)n1 [Compound 56] | 0 | 100 |  |
| CN(C(=O)Nc1nc(OCC(F)(F)F)cc(OCC(F)(F)F)n1)c1ccc(C(F)(F)F)cc1 [Compound 31] | 100 | 100 |  |
| COCN(C(=O)Nc1nc(OCC(F)(F)F)cc(OCC(F)(F)F)n1)c1ccc(C(F)(F)F)cc1 [Compound 39] | 100 | 100 |  |
| COCN(C(=O)N(COCc1ccccc1)c1nc(OCC(F)(F)F)cc(OCC(F)(F)F)n1)c1ccc(Br)cc1 [Compound 68] | 100 | 100 |  |
| CN(C(=O)Nc1cc(C(F)(F)F)cc(OCC(F)(F)F)n1)c1ccc(Br)nc1 [Compound 169] | 100 | 100 |  |
| CN(C(=O)Nc1nc(OCC(F)(F)F)nc(OCC(F)(F)F)n1)c1ccc(Br)cc1 [Compound 119] | 100 | 88 |  |
| CC(Oc1ccc(NC(=O)Nc2nc(OCC(F)(F)F)cc(OCC(F)(F)F)n2)cc1)C(F)(F)F (stereo not shown) [Compound 17] | 100 | 0 |  |
| CC(C)(C)COCN(C(=O)Nc1nc(OCC(F)(F)F)cc(OCC(F)(F)F)n1)c1ccc(C(F)(F)F)cc1 [Compound 61] | 100 | 100 |  |
| CN(C(=O)Nc1nc(OCC(F)(F)F)cc(OCC(F)(F)F)c1F)c1ccc(OC(F)(F)F)cc1 [Compound 185] | 100 | 100 |  |
| COC(=O)c1ccc(N(C)C(=O)Nc2nc(OCC(F)(F)F)cc(OCC(F)(F)F)n2)cc1 [Compound 82] | 100 | 0 |  |
| CCOCN(C(=O)Nc1nc(OCC(F)(F)F)cc(OCC(F)(F)F)n1)c1ccc(Br)cc1 [Compound 74] | 100 | 100 |  |
| O=C(Nc1ccc(Br)nc1)Nc1nc(OCC(F)(F)F)c(Cl)c(OCC(F)(F)F)n1 [Compound 146] | 100 | 100 |  |
